Here are results for 34 molecules from a melting point compilation (Tetko et al.; mined from patent text by program, amines drawn as free bases though some values may be those of a salt).

Some results are limits rather than exact numbers.

For the molecule `COc1cc2c(cc1OC)CCCC(C(=O)O)=C2`, the melting point was in the range of 158 to 159 °C.

Turning to `COc1cc(C(=O)O)ccc1CN1CCOc2ccc(NC(=O)CC3CCCC3)cc21`, the melting point was in the range of 224 to 225 °C.

`Cn1cc(C(=O)c2ccc3ccccc3c2)cc1C(=O)CCl` gave a melting point of 148 to 151 °C.

Turning to `CCOC(OCC)c1ccc(C(O)(c2ccc3nc(OC)cc(-c4cccc(Cl)c4)c3c2)c2cncn2C)cc1` (centres undefined), the melting point stood at 80 °C.

As for `CC(=O)NC1(Cc2ccccc2)CCN(Cc2ccccc2)CC1`, the melting point was 134 °C.

`Cc1nnsc1C(=O)Nc1ccccc1C(=O)O` showed a melting point of 223 °C.

In turn, `Cn1c(NCCCOc2cccc(CN3CCCCC3)c2)nc2ccccc21` had a melting point of 153 to 154 °C.

For the molecule `CSc1nn2c(N)cc(C)nc2c1S(=O)(=O)c1ccc(Br)cc1`, the melting point was above 230 °C.

Molecule `CNC(=O)c1ccccc1CCc1ccc(Br)cc1` registered a melting point of 138 to 141 °C.

In the case of `O=Cc1ccc(O)c(O)c1Cl`, the melting point was 193 to 195 °C.

In the case of `COc1cc(Nc2nccc(-c3cccnc3)n2)cc(OC)c1OC`, the melting point was found to be 155 °C.

`COc1cccc(P(=O)(c2ccc(C)cc2)c2ccc(C)cc2)c1I` displayed a melting point of 146 to 148 °C.

`CCOC(=O)c1ccc(-c2ccc(OCCCN)c(-c3ccc4c(c3)C(C)(C)CCC4(C)C)c2)cc1`: the melting point stood at 155 °C.

As to `Cc1coc(NC(=S)Nc2ccc(Cl)cc2C)n1`, the melting point is 214 °C.

On to `COc1nc2ccccc2cc1N(C)C(=O)N1CCN(c2cc(C)cc(C)c2)CC1`, for which the melting point was 142 to 143 °C.

Turning to `CCC(=O)NCCC1CCc2cc(Br)c3c(c21)CC(C)(C)O3` (centres undefined), the melting point is 98 to 101 °C.

`O=C(NCC12CC3CC(CC(C3)C1)C2)c1c(Cl)ccc2nc(N3CCC(C(=O)O)(c4ccccc4)CC3)ccc12`: the melting point was 235 to 237 °C.

In turn, `O=C1CC(=O)N(c2ccccc2)c2cc(Cl)ccc2N1CC1CC1` gave a melting point of 215 to 218 °C.

`CC(C)(C)OC(=O)C[C@H](NC(=O)c1cccc(NC(=O)C(Cc2ccc(C(=N)N)cc2)NC(=O)OC(C)(C)C)c1)C(=O)N[C@@H](Cc1cccc2ccccc12)C(=O)O` (mixture of isomers) registered a melting point of 263 to 265 °C.

Consider `COc1ccc(Nc2nccc(-c3ccc(Cl)nc3)n2)cn1`, for which the melting point lay in the range of 203 to 205 °C.

Molecule `Cc1ccccc1N(C(=O)Nc1cc(C)c(S(=O)(=O)C[N+](=O)[O-])c(C)c1)C(C)C` had a melting point of 177 to 178 °C.

The molecule `Cc1cc2c(cc1-c1ccc(F)cc1)NC(=O)CC(c1cccc(-n3ccnc3)c1)=N2` yielded a melting point of 196 °C.

`N#Cc1ccc(S(=O)(=O)c2ccc(S(N)(=O)=O)s2)c(F)c1` had a melting point of 200 to 202 °C.

Turning to `CCOC(=O)Cc1ccc2cc(Br)ccc2n1`, the melting point is 100 to 101 °C.

The molecule `Cc1ccc(N2CCN(S(=O)(=O)c3cccc(/C=C/C(=O)NO)c3)CC2C)cc1` (centres undefined) yielded a melting point of 186 °C.

As for `COCCc1c[nH]c(-c2ccc(OCc3ccccc3)cc2)n1`, the melting point was in the range of 154 to 156 °C.

Molecule `O=C(CC(=O)OCc1ccc([N+](=O)[O-])cc1)CC1CC(=O)N1` (centres undefined) displayed a melting point of 50 to 52 °C.

The molecule `CCOC(=O)C1(Br)Oc2ccccc2OC1Br` (centres undefined) showed a melting point of 102 °C.

`O=C(Oc1ccccc1)c1cc(O)c(O)c(O)c1` came in with a melting point of 190 to 191 °C.

Regarding `CC(=O)Oc1ccc2c(c1Cl)Sc1ccccc1N2C(C)=O`, the melting point is 155 °C.

With `CN(C)C(=O)CC(N)=S`, the melting point was 111 to 114 °C.

Consider `COc1cccc(CNC(=O)[C@H]2N(C(=O)[C@@H](O)[C@@H](Cc3ccccc3)NC(=O)c3cccc(O)c3C)CSC2(C)C)c1`, for which the melting point was 108 to 110 °C.

Turning to `COC(=O)c1ccccc1C(=O)Nc1cc(C(F)(F)F)on1`, the melting point is 116 to 117 °C.

`CC(C)N=CN1c2ccccc2Cc2ccccc21`: the melting point was 150 °C.

As a reminder, the melting point is the temperature of the solid-liquid transition.
